Test results taken from US10568857B2, “Method of treating renal system damage” (The University of Utah Research Foundation, priority 2008, dated 2020).
“Also recorded” adds a separate entry of the source.

What was measured:
[1] = test system: BALB/c mice (ADR nephropathy); experiment: Adriamycin (ADR) nephropathy in mice, OA-NO2 pretreatment via osmotic mini-pump; assay type: in vivo, mouse; conditions: for plasma albumin: control 1.01±0.15; for albuminuria (urinary albumin): control 33.39±3.50
Description: Male BABL/C mice were purchased from the Jackson Laboratories (Bar Harbor, Me., USA). Mice were maintained in a temperature-controlled barrier facility with a 12:12-h light-dark cycle and were given free access to standard laboratory chow and tap water. Mice were randomized into three groups: 1) control, 2) Adriamycin (ADR), and 3) ADR+ nitro-oleic acid (OA-NO2). In Group 3, OA-NO2 (dissolved in ethanol) was administered at 5 mg/kg/day via subcutaneously implanted osmotic mini-pump and vehicle (ethanol) was given to the other two groups. This dose was chosen based a previous study (35). After 2 days of pretreatment with OA-NO2, Groups 2 and 3 received a single tail vein injection of ADR at 10 mg/kg. Group 1 received a single tail vein injection of saline. Twenty four-hour urine was collected with using metabolic cages. Seven days after ADR treatment, all mice were killed and kidneys were immediately harvested gene expression or histological analyses. All protocols employing mice were conducted in accordance the principles and guidance of the University of Utah Institutional Animal Care and Committee.
Urine samples were centrifuged for 5 minutes at 10,000 rpm. Blood samples from anesthetized mice were collected by puncturing the vena cava using a 1-ml insulin syringe containing 50 μl of 1 mM EDTA in the absence of protease inhibitors. Urine and plasma albumin was determined using a murine microalbuminuria enzyme-linked immunosorbent assay kit (Cat#1011, EXOCELL). Plasma triglyceride level was determined using a LabAssay Triglyceride ELISA Kit (Cat#290-63701, WAKO). Urine and plasma levels of urea were measured by Urea Nitrogen Direct kit (Cat#0580-250, Stanbio Laboratory), and urine and plasma levels of creatinine were measured by Creatinine Liquicolor kit (Cat#0420-250, Stanbio Laboratory).
Under anesthesia, kidneys were removed and fixed with 4% paraformaldehyde. The tissues were subsequently embedded in paraffin and 4-μm sections were cut and stained with periodic acid Schiff (PAS). Glomerular sclerosis was assessed as follows using a semiquantitative score: grade 0, normal appearance; grade I, involvement of up to 25% of the glomerulus; grade II, involvement of 25 to 50% of the glomerulus; grade III, involvement of 50 to 75% of the glomerulus; grade IV, involvement of 75 to 100% of the glomerulus. A glomerulosclerosis index (GSI) was calculated by multiplying the number of glomeruli with a sclerosis score of I by one, the number with a score of II by two, III by three, and IV by four. These values were summed and divided by the number of glomeruli assessed, including those with a sclerosis score of zero. The SI for each kidney specimen was a sum of the points from 30 glomeruli. Tubulointerstitial injury (defined as tubular atrophy, dilatation, thickening of the basement membrane, protein cast) by semiquantitative analysis. Thirty cortical fields from each animal were examined at ×200 magnification and graded according to a scale of 0 to 4: 0, no tubulointerstitial injury 1, <25% of the tubulointerstitium injured; 2, 25% to 50% of the tubulointerstitium injured; 3, 51% to 75% of the tubulointerstitium injured; and 4, 76% to 100% of the tubulointerstitium injured. All sections were examined in blind manner.
Immunohistochemical staining was performed. Anti-WT1 antibody was purchased from Dako (Mob437, Dako).
Total RNA was isolated using TRIzol (Invitrogen, Carlsbad, Calif.), and first-strand cDNAs were synthesized from 2 μg of total RNA in […] reaction using SuperScript (Invitrogen). The first strand cDNAs served as the template for quantitative PCR performed in Applied Biosystems 7900 Real Time PCR System using SYBR green PCR reagent (Applied Biosystems, Foster City, Calif., USA). The amplification was carried out for 40 cycles with conditions of 15-s denaturation at 95° C. […]

[2] = test system: human proximal tubular cells (HK2); assay type: cell-based; conditions: pretreatment 1 h with 1.5 μM OA-NO2, then 24 h 1 μM cisplatin
Description: FIG. 6. Bar graphs show the effects of nitrated fatty acid OA-NO2 on cisplatin-induced apoptosis in vivo and in vitro. A), Caspase activity in the mouse kidney. N=5-6 in each group. B), Caspase activity in cultured human proximal tubular cells (HK2). Following pretreatment for 1 h with vehicle or 1.5 μM OA-NO2, the cells were exposed for 24 h to 1 μM cisplatin. N=3 in each group. Data are mean±SE. A single dose of i.p. injection of cisplatin induced renal dysfunction as indicated by the marked rise in plasma BUN (FIG. 1), accompanied by severe renal histological abnormalities characterized by distortion of the overall renal morphology, dilation of renal tubules, and appearance of protein cast (FIG. 2).

[3] = test system: B6129SF2/J mice (cisplatin-induced toxicity); experiment: Effects of OA-NO2 on cisplatin-induced toxicity in mice; assay type: in vivo, mouse; conditions: cisplatin 20 mg/kg i.p.
Description: FIG. 1. A bar graph showing the plasma concentrations of Blood Urea Nitrogen (BUN) in mice under the conditions indicated. N=5-6. Data are mean±n SE. B6129S2/J mice (male, 3-4-mo-old) received vehicle (Control) or a single i.p. injection of cisplatin alone (20 mg/kg in saline). After 20 min, the cisplatin group was randomly divided to receive an i.p injection of OA-NO2 (400 mg/kg in ethanol) or an equivalent amount of ethanol at 6-h intervals for 48 h.
Male 3-4-month-old B6129SF2/J mice were from Jackson Laboratories (Bar Harbor, Me.). All animals were housed in an air-conditioned room with a 12-hour light/dark cycle. All procedures and protocols were in accordance with guidelines set by the Laboratory Animal Care Committee at the University of Utah.
Protocol for testing effects of OA-NO2 on cisplatin-induced toxicity in B6129SF2/J mice. B6129S2/J mice (male, 3-4-mo-old) received vehicle (saline) or a single i.p. (intraperitoneal) injection of cisplatin alone (20 mg/kg in saline). After 20 minutes, the cisplatin group was randomly divided to receive an i.p. injection of OA-NO2 (400 mg/kg in ethanol) or an equivalent amount of ethanol at 6-hour intervals for 48 hours. The control group also received an i.p. injection of the equivalent amount of ethanol at the same frequencies. At the end of the experiments, under isoflurane anesthesia, blood was withdrawn from the vena cava using 1 cc insulin syringe and kidneys were harvested for analysis of morphology and gene expression.

[4] = ADR+OA-NO2 group vs ADR, P<0.05
[5] = OA-NO2 treatment in ADR mice, P<0.05
[6] = OA-NO2 treatment in ADR mice, real-time PCR and Western blotting, P<0.05
[7] = OA-NO2 400 mg/kg i.p. at 6-h intervals for 48 h
[8] = OA-NO2 400 mg/kg i.p. at 6-h intervals for 48 h, real time RT-PCR
[9] = posttreatment OA-NO2 400 mg/kg i.p. at 6-h intervals for 48 h

In the case of COc1cccc2c1C(=O)c1c(O)c3c(c(O)c1C2=O)C[C@@](O)(C(=O)CO)C[C@@H]3O[C@H]1C[C@H](N)[C@H](O)[C@H](C)O1 [ADR, doxorubicin (Adriamycin), reference compound], the plasma triglyceride ([1]; ADR group (ADR 10 mg/kg alone)) is reported as 396.18 ± 70.94 mg/dL, the plasma albumin ([1]; ADR group (ADR 10 mg/kg alone), day 7) is reported as 0.28 ± 0.08 g/dL and the “albuminuria (urinary albumin)” value ([1]; ADR group (ADR 10 mg/kg tail vein alone), day 5) is reported as 508.89±48.52 μg/24 h. The “mice with severe ascites at sacrifice” value ([1]; ADR mice (ADR 10 mg/kg alone)) was “Ninety”.

In the case of nitrooleic acid [OA-NO2], the cisplatin-induced caspase activity [2] is reported as “almost completely normalized”, the “renal ZO-1 mRNA (qRT-PCR)” value ([1]; ADR+OA-NO2 group) is reported as “significant elevation” and the “number of WT1-positive cells (podocytes), immunohistochemistry” value ([1]; ADR+OA-NO2 group vs ADR group) is reported as “partially restored”. For the same compound, the “plasma BUN” value ([1]; ADR+OA-NO2 group vs ADR group) was “significantly attenuated”, the plasma creatinine ([1]; ADR+OA-NO2 group vs ADR group) was “significantly attenuated” and the “renal gp91phox protein (immunoblot)” value ([1]; ADR+OA-NO2 group vs ADR, P<0.01) was “further confirmed at the protein level”. For the same compound, the “renal mRNA expression of gp91phox” value [1, 4] was “the increase was less”, the “renal mRNA expression of p47phox” value [1, 4] was “the increase was less” and the plasma triglyceride ([1]; ADR+OA-NO2 group, OA-NO2 5 mg/kg/day) was 212.70 ± 39.22 mg/dL. For the same compound, the “albuminuria (urinary albumin)” value ([1]; ADR+OA-NO2 group, day 5 after ADR 10 mg/kg i.v., OA-NO2 5 mg/kg/day s.c. mini-pump from 2 days before) was 342.40±33.26 μg/24 h, the plasma albumin ([1]; ADR+OA-NO2 group, day 7 after ADR, OA-NO2 5 mg/kg/day) was 0.58 ± 0.13 g/dL and the “mice having mild ascites at sacrifice” value ([1]; ADR+OA-NO2 mice, OA-NO2 5 mg/kg/day) was 20%. For the same compound, the “glomerulosclerotic index (GSI), PAS staining” value ([1]; ADR+OA-NO2 vs ADR, P<0.05) was “ameliorates glomerulosclerosis; also recorded: marked reduction”, the “albuminuria (urinary albumin), time course” value ([1]; ADR+OA-NO2 vs ADR, day 3 and day 7 after ADR injection) was “ameliorates albuminuria; also recorded: These changes were observed at day 3 and maintained at day 7” and the “tubulointerstitial lesion (TILI)” value ([1]; ADR+OA-NO2 vs ADR, day 8 after ADR injection) was “ameliorates”. For the same compound, the “renal expression of IL-1β (qRT-PCR)” value ([1]; OA-NO2 in ADR mice) was “suppressed”, the “renal expression of MCP-1 (qRT-PCR)” value ([1]; OA-NO2 in ADR mice) was “suppressed” and the “renal expression of TNF-α (qRT-PCR)” value ([1]; OA-NO2 in ADR mice) was “suppressed”. The “renal WT1 protein (immunoblotting)” value ([1]; OA-NO2 pretreatment in ADR mice, P<0.05) was “prevented the downregulation”, the “renal desmin mRNA (qRT-PCR)” value ([1]; OA-NO2 treatment in ADR mice) was “prevented this increase” and the “renal TGF-β mRNA expression” value [1, 5] was “dramatic suppression”. For the same compound, the “renal collagen III mRNA expression” value [1, 5] was “dramatic suppression”, the “renal fibronectin (FN) expression” value [1, 6] was “prevented the up-regulation” and the “renal α-SMA expression” value [1, 6] was “prevented the up-regulation”. For the same compound, the “kidney TBARS” value ([1]; OA-NO2 treatment vs ADR mice) was “trend of reduction of TBARS levels in response to OA-NO2 treatment but this did not reach a statistical significance”, the “plasma TBARS” value ([1]; OA-NO2 treatment vs ADR mice) was “markedly attenuated” and the “urinary TBARS” value ([1]; OA-NO2 treatment vs ADR mice) was “markedly attenuated”. For the same compound, the “activity of caspase in the mouse kidney” value [3, 7] was “attenuated or completely corrected”, the “kidney thiobarbituric acid-reactive substances (TBARS)” value [3, 7] was “attenuated or completely corrected” and the “plasma level of MPO” value ([3]; OA-NO2 400 mg/kg i.p. at 6-h intervals for 48 h, EIA) was “reduces; also recorded: attenuated or completely corrected”. For the same compound, the “kidney expression of NADPH oxidase subunit gp91phox” value [3, 8] was “attenuated or completely corrected”, the “kidney expression of NADPH oxidase subunit p47phox” value [3, 8] was “attenuated or completely corrected” and the “plasma BUN (renal function)” value [3, 9] was “improves renal function; also recorded: markedly attenuated”. For the same compound, the “renal histological abnormalities (renal morphology, dilation of tubules, protein cast)” value [3, 9] was “improves renal morphology; also recorded: markedly attenuated”.
